{"source": "patent US10183011B2", "about": "“Anti-depression compounds” (Board of Regents of the University of Texas System, priority 2009, dated 2019)", "key": {"[1]": {"tested_on": "aged Fisher 344 rats", "test": "Aged rats: hippocampal neurogenesis, Morris water maze, apoptosis, body weight", "assay_type": "in vivo, rat (Fisher 344)", "experimental": "FIG. 20A, FIG. 20B, FIG. 20C, FIG. 20D and FIG. 20E: Effect of Example 45 Compound in aged rats. (FIG. 20A) Example 45 Compound (20 mg/kg/d, i.p.) and BrdU (50 mg/kg, i.p.) were administered daily for 7 days to 12-18 month old Fisher 344 rats (n=4 in each group). P7C3 promoted neural precursor cell proliferation by roughly 5 fold compared to vehicle. (*p<0.001, Students t test). […] These micrographs were taken at the same magnification. Scale bar=[…]. Data are expressed as mean+/−SEM. […] Data are expressed as mean+/−SEM. […] Data are expressed as mean+/−SEM.\nMany more of the BrdU-labeled cells were noted to have migrated into the granular layer in Example 45 Compound-treated rats in comparison to vehicle treated animals, consistent with their functional incorporation into the dentate gyrus as properly wired neurons. The scale bar represents […]. […] The scale bar represents […]. […] In all graphs data are expressed as mean±SEM.\nIt was first evaluated whether Example 45 Compound would enhance hippocampal neurogenesis in aged rats as it does in adult mice. Rats were injected with a daily, IP dose of either […] of Example 45 Compound or vehicle, coinjected with a daily dose of BrdU, and then sacrificed after 7 days for immunohistochemistry. […] Having observed proneurogenic efficacy of Example 45 Compound in this short term assay, it was then tested whether prolonged administration of Example 45 Compound might ameliorate age-related decline in cognition by subjecting 18-month-old rats to daily administration of either […] of Example 45 Compound or vehicle only for 2 months. Animals of both groups were further subjected to weekly IP administration of BrdU (50 mg/kg) for later immunohistochemical measurements of hippocampal neurogenesis. As a control, both Example 45 Compound- and vehicle-treated groups were confirmed to display equal ability to physically participate in the task, and learn the task, as shown by decreased latency times to find the hidden platform over the 5 day training period, both before and after 2 months of treatment (FIG. 20B). Moreover, neither swim speed (FIG. 20C) nor locomotor activity (FIG. 20D) varied with age or treatment paradigm.\nAfter 2 months of compound or vehicle administration, cognitive ability was assessed blind to treatment group by removing the goal platform. Animals of the Example 45 Compound-treated group retained a statistically significant improvement in ability to navigate to the region of the missing platform, as evidenced by performance in the probe test.\nAfter behavioral testing, animals were sacrificed for immunohistochemical detection of BrdU and CCSP3. […] Next it was tested whether Example 45 Compound-mediated preservation of body weight in aged rats operates via central or peripheral modes of action."}, "[2]": {"tested_on": "Ghsr-null and wild-type mice", "test": "Social interaction test after CSDS", "assay_type": "in vivo, mouse", "excerpt": "FIG. 41. Effects of P7C3 on CSDS-induced depressive-like behavior, as measured by the social interaction test. (a, b) Times spent in the interaction zone with target present for wild-type (a) and Ghsr-null (b) mice. (c, d) Times spent in the corners by wild-type (c) and Ghsr-null (d) mice. Group sizes indicated. *P<0.05, **P<0.01, as compared to respective vehicle-treated control group.\nNext, P7C3 and two chemical analogs were employed to investigate whether P7C3-mediated preservation of ventral DG neurogenesis during CSDS might correlate with an antidepressant-like behavioral effect. […] Conversely, the analog P7C3-S184 (Example 178) replaces bromines on the carbazole moiety with chlorines and the aniline moiety with a naphthyl amine, leaving the analog completely devoid of neuroprotective activity.\nCSDS was performed similar to methods used previously in the lab (J. C. Chuang et al., Ghrelin mediates stress-induced food-reward behavior in mice. J Clin Invest 121, 2684 (2011)). Test mice were housed individually in large cages paired with a CD1 aggressor mouse, separated by a plastic divider with holes so as to allow sensory contact. For 5 min a day, the plastic divider was removed, exposing test mice to the CD1 mouse. After 5 min of exposure to the CD1 mouse, test mice were again separated and paired with a new CD1 mouse for the remainder of the 24 hours. This process was repeated for 10 days. Following the 5 min sensory contact on the 10th day, mice were separated and singly housed prior to social interaction test. Control mice were housed in equivalent cages with members of the same strain and handled daily. The social interaction test consists of placing mice in an arena with a small cage at one end. The movements of test mice were tracked for 2.5 min in the absence of another mouse, followed by 2.5 min in the presence of a novel CD1 mouse, or the “target”. Ethovision 3.0 software (Noldus, Leesburg, Va.) measured the duration spent in the interaction zone or in the corners. As done previously, data is presented as time spent in the interaction zone when the target is present or time spent in the corners when the target is present (J. C. Chuang et al., Ghrelin mediates stress-induced food-reward behavior in mice. J Clin Invest 121, 2684 (2011))."}, "[3]": {"target": "H1 histamine receptor (Homo sapiens, UniProt P35367)", "sequence (P35367 whole entry)": "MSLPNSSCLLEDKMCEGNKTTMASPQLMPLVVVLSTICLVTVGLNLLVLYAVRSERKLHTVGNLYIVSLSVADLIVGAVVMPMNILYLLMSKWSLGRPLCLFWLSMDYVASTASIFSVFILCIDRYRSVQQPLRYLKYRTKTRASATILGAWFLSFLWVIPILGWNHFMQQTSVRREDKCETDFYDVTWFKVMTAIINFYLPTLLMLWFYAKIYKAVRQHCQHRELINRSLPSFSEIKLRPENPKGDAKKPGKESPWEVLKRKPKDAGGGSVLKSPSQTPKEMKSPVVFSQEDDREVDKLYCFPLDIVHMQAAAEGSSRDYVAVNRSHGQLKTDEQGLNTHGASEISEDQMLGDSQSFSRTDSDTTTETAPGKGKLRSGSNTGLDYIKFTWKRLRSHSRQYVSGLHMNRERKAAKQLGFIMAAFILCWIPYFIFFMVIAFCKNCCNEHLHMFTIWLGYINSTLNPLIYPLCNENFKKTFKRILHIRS", "test": "Binding to the H1 histamine receptor", "experimental": "Example 45 Compound and Dimebon were tested for binding to the H1 histamine receptor."}}, "note": "Read-outs that look alike come from different tables or passages of the source."}
{"smiles": "OC(CNc1ccccc1)Cn1c2ccc(Br)cc2c2cc(Br)ccc21", "note": "(stereo not drawn) [Example P7C3]", "values": [{"measurement": "neural precursor cell proliferation (BrdU) compared to vehicle", "setting": "[1]; daily i.p. for 7 days, 12-18 month old Fisher 344 rats", "result": "roughly 5 fold"}, {"measurement": "depression-like behavior, social interaction test", "setting": "[2]; CSDS-exposed Ghsr-null mice", "result": "showed antidepressant efficacy"}, {"measurement": "depression-like behavior, social interaction test", "setting": "[2]; CSDS-exposed wild-type mice", "result": "had no significant effect on depression-like behavior"}, {"measurement": "social interaction test performance", "setting": "[2]; non-CSDS-exposed control mice", "result": "Neither P7C3 nor the two tested analogs influenced social interaction test performance"}]}
{"smiles": "OC(CNc1ccccc1)Cn1c2ccc(Br)cc2c2cc(Br)ccc21", "note": "(stereo not drawn) [Example 45 Compound]", "values": [{"measurement": "IC50", "setting": "[3]; both enantiomers", "result": "> 10", "unit": "µM"}, {"measurement": "apoptotic cells in the dentate gyrus", "setting": "[1]; after 2 months of treatment", "result": "statistically significant reduction in the number of CCSP3-positive cells"}, {"measurement": "level of BrdU-positive neurons in the dentate gyrus versus vehicle", "setting": "[1]; after 2 months of treatment", "result": 3, "unit": "fold"}, {"measurement": "postfasting blood glucose levels", "setting": "[1]; aged rats", "result": "had no effect on postfasting blood glucose levels"}, {"measurement": "body weight with aging", "setting": "[1]; aged rats, 2 months of treatment", "result": "helped rats maintain stable body weight with aging"}, {"measurement": "increase in BrdU labeling in the dentate gyrus relative to vehicle", "setting": "[1]; daily IP for 7 days, aged rats", "result": 500, "unit": "%"}, {"measurement": "crossings of the location previously containing the platform", "setting": "[1]; probe test after 2 months of treatment", "result": "significantly more often than vehicle-treated rats"}, {"measurement": "percentage of time in the general goal area (quadrant previously containing the platform)", "setting": "[1]; probe test after 2 months of treatment, vehicle 28.1%±2.6%", "result": "35.5%±2.2%"}]}
{"smiles": "OC(CNc1cccc2ccccc12)Cn1c2ccc(Cl)cc2c2cc(Cl)ccc21", "note": "(stereo not drawn) [Example P7C3-S184]", "values": [{"measurement": "depression-like behavior, social interaction test", "setting": "[2]; CSDS-exposed Ghsr-null mice", "result": "had no effect on stress-induced depressive-like behavior in either genotype"}, {"measurement": "depression-like behavior, social interaction test", "setting": "[2]; CSDS-exposed wild-type mice", "result": "had no effect on stress-induced depressive-like behavior in either genotype"}]}
{"smiles": "Cc1ccc2c(c1)c1c(n2CCc2ccc(C)nc2)CCN(C)C1", "note": "[Dimebon, 2,3,4,5-Tetrahydro-2,8-dimethyl-5-(2-(6-methyl-3-pyridyl)ethyl)-1H-pyrido(4,3-b)indole, reference compound]", "values": [{"measurement": "IC50", "setting": "[3]", "result": "< 0.1", "unit": "µM"}]}
